Publication PMC11969548 (2025)

Legend:
[1] = system: P27 (DD aptagel) (DNA, aptamer) CGACCGAGGGTACCGCAATAGTACTTA/TTGTTCGCCTATTGTGGGTCGGGTCG; assay: angular SPR of hydrogel film; settings: PBS, 2 mM Mg2+, 200-fold diluted rat plasma, 37 °C
[2] = system: P27 (monolayer) (DNA, aptamer) CGACCGAGGGTACCGCAATAGTACTTA/TTGTTCGCCTATTGTGGGTCGGGTCG; assay: SPR, dissociation phase fit; settings: PBS, 2 mM Mg2+, pH 7.4, 37 °C, split 2 in solution, independent of analyte concentration
[3] = system: P27.i (monolayer) (DNA, aptamer) CGACCGAGGGTACCGCAATAGTACTTA/TTGTTCGCCTATTGCGGGTCGGGTCG; assay: SPR, dissociation phase fit; settings: PBS, 2 mM Mg2+, pH 7.4, 37 °C, split 2 in solution, independent of analyte concentration
[4] = system: PolyA (PA) aptagel (DNA, single strand) AAAAAAAAAAAAAAAAAAAAAAAAAAA; assay: angular SPR of hydrogel film; settings: PBS, 2 mM Mg2+; 37 °C; 1 mM vancomycin; 3 mM poly A, [ene]/[SH] 4
[5] = system: P27 (MM aptagel) (DNA, aptamer) CGACCGAGGGTACCGCAATAGTACTTA/TTGTTCGCCTATTGTGGGTCGGGTCG; assay: angular SPR and QCM-D of hydrogel film; settings: PBS, 2 mM Mg2+; 37 °C; 1 mM vancomycin; 1 mM aptamer; reversible; smallest response
[6] = system: P27 (MD aptagel) (DNA, aptamer) CGACCGAGGGTACCGCAATAGTACTTA/TTGTTCGCCTATTGTGGGTCGGGTCG; assay: angular SPR and QCM-D of hydrogel film; settings: PBS, 2 mM Mg2+; 37 °C; 1 mM vancomycin; 1 mM aptamer; reversible
[7] = system: Full (full-length parent aptamer, aptagel) (DNA, aptamer) CGACCGAGGGTACCGCAATAGTACTTATTGTTCGCCTATTGTGGGTCGGGTCG; assay: angular SPR and QCM-D of hydrogel film; settings: PBS, 2 mM Mg2+; 37 °C; 1 mM vancomycin; 1 mM aptamer; partly irreversible
[8] = system: P27 (DD aptagel) (DNA, aptamer) CGACCGAGGGTACCGCAATAGTACTTA/TTGTTCGCCTATTGTGGGTCGGGTCG; assay: angular SPR of hydrogel film, dissociation phase fit; settings: PBS, 2 mM Mg2+; pH 7.4, 37 °C; vancomycin below 50 µM; rises to 0.7 above 100 µM; apparent
[9] = concentration matching refractive index of 10 µM vancomycin

CC1(C)S[C@@H]2[C@H](NC(=O)[C@H](N)c3ccccc3)C(=O)N2[C@H]1C(=O)O
binding [1, 9]: no

CO[C@H]1/C=C/O[C@@]2(C)Oc3c(C)c(O)c4c(O)c(c(/C=N/N5CCN(C)CC5)c(O)c4c3C2=O)NC(=O)/C(C)=C\C=C\[C@H](C)[C@H](O)[C@@H](C)[C@@H](O)[C@@H](C)[C@H](OC(C)=O)[C@@H]1C
binding [1, 9]: no

CN[C@H](CC(C)C)C(=O)N[C@H]1C(=O)N[C@@H](CC(N)=O)C(=O)N[C@H]2C(=O)N[C@H]3C(=O)N[C@H](C(=O)N[C@H](C(=O)O)c4cc(O)cc(O)c4-c4cc3ccc4O)[C@H](O)c3ccc(c(Cl)c3)Oc3cc2cc(c3O[C@@H]2O[C@H](CO)[C@@H](O)[C@H](O)[C@H]2O[C@H]2C[C@](C)(N)[C@H](O)[C@H](C)O2)Oc2ccc(cc2Cl)[C@H]1O
koff [2]: 0.0033 s⁻¹
koff [3]: ~ 0.16 min^-1
binding [4]: no
binding [5]: weak
binding [6]: yes
binding [7]: yes
koff [8]: ~ 0.2 min^-1

OC[C@H]1OC(O)[C@H](O)[C@@H](O)[C@@H]1O (stereo partly shown)
binding ([1]; 80 µM glucose): no
